Among the test systems are HT29 colon; MCF7 breast; NCI-H460 lung; RXF 393 renal; SF-539 CNS; SK-OV-3 ovarian; SN12C renal; U251 CNS; UACC-257 melanoma; DU-145 prostate.
What all share (test): growth of human tumour cells (NCI), 48 h

Values joined by “and” are separate entries in the source; they are usually repeats but may differ in a detail not shown here. Equal entries are not always repeated.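 Interpolation was linear, between the two tested concentrations surrounding the appropriate level; five concentrations were tested over 48 hours in 96-well plates. GI50 is the concentration that inhibits growth by half. TGI: concentration producing complete growth inhibition.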

Regarding `COC(=O)CC[C@]1(C)O[C@H]2[C@H]([C@@H](C)CCCC(C)=O)OC(=O)[C@@H]2C[C@H]1O`, the GI50 is above 100000 nM in the test on HT29 colon; above 100 µM with MCF7 breast; above 100 µM with NCI-H460 lung; 60.1 µM in the test with RXF 393 renal; 84.9 µM in the test on SF-539 CNS; above 100 µM in the test on SK-OV-3 ovarian. The GI50 in the test on SN12C renal was above 100 µM; in the test with U251 CNS, above 100 µM; in the test on UACC-257 melanoma, 44.9 µM. Also, the TGI with HT29 colon was above 100000 nM; in the test with MCF7 breast it was above 100 µM; in the test with NCI-H460 lung it was above 100 µM; with RXF 393 renal it was above 100 µM; with SF-539 CNS it was above 100 µM; in the test with SK-OV-3 ovarian it was above 100 µM. Also, the TGI with SN12C renal, in the test with U251 CNS and in the test on UACC-257 melanoma was above 100 µM each time.

On to `Nc1c2c(c(O)c3c1=C(CO)C=N3)=NCCS2`, for which the GI50 was 0.127 µM with DU-145 prostate; 79.4 nM in the test with HT29 colon; 0.0389 µM in the test on NCI-H460 lung; 0.289 µM in the test on RXF 393 renal; 0.165 µM in the test with SF-539 CNS; 0.346 µM with SK-OV-3 ovarian. Moreover, the GI50 in the test on SN12C renal was 0.167 µM; in the test on U251 CNS, 0.18 µM; with UACC-257 melanoma, 0.142 µM. Besides, the TGI with DU-145 prostate came to 0.253 µM; in the test with HT29 colon, 370 nM; in the test on NCI-H460 lung, 0.154 µM; with RXF 393 renal, 1.24 µM; with SF-539 CNS, 0.301 µM; in the test with SK-OV-3 ovarian, 1.2 µM. In addition, the TGI in the test on SN12C renal was found to be 0.332 µM; in the test on U251 CNS it was 0.329 µM; in the test with UACC-257 melanoma, 0.288 µM.

Regarding `C#CC1(OC(C)=O)CCC2C3CC=C4C=C(OC(C)=O)CCC4(C)C3CCC21C` (centres undefined), the TGI in the test on DU-145 prostate is 97.4 µM; in the test on HT29 colon, 40000 nM; in the test with MCF7 breast, 49.9 µM; in the test with NCI-H460 lung it was 61.8 µM; with SF-539 CNS, 40.1 µM; in the test with SK-OV-3 ovarian, above 100 µM. For the same compound, the figures for the TGI with SN12C renal, in the test with U251 CNS and with UACC-257 melanoma were 45.1 µM, 38.9 µM and 35.3 µM, respectively.

For the compound `CC1=C(C(=O)Nc2ccc(Cl)c(Cl)c2)C(c2cccc(Cl)c2)NC(=O)N1` (centres undefined), the GI50 was 7.58 µM in the test with DU-145 prostate; 2.11 µM with MCF7 breast; 8.5 µM in the test on NCI-H460 lung; 13.8 µM in the test with RXF 393 renal; 6.48 µM in the test on SF-539 CNS; 10.6 µM in the test on SK-OV-3 ovarian. Further, the GI50 in the test with SN12C renal was 8.53 µM; in the test on U251 CNS it was 8.32 µM; in the test with UACC-257 melanoma, 12.2 µM. For the same compound, the TGI in the test on DU-145 prostate was 14.3 µM; with MCF7 breast, 13.5 µM; in the test on NCI-H460 lung, 20.1 µM; in the test with RXF 393 renal, 32.6 µM; with SF-539 CNS, 13.2 µM; in the test with SK-OV-3 ovarian it was 20.7 µM. Further, the figures for the TGI in the test on SN12C renal, with U251 CNS and in the test with UACC-257 melanoma were 16.8 µM, 17 µM and 25.6 µM, respectively.

For `c1cc(N2CCCN(c3ccc(C4=NCCCN4)cc3)CC2)ccc1C1=NCCCN1`, the GI50 in the test on DU-145 prostate is above 100 µM; in the test on HT29 colon, above 100000 nM; in the test with MCF7 breast it was above 100 µM; in the test with NCI-H460 lung, 36.7 µM; in the test on RXF 393 renal, above 100 µM; in the test on SF-539 CNS it was 59.4 µM. Further, the values for the GI50 with U251 CNS and with UACC-257 melanoma were 65.9 µM and above 100 µM, respectively. The TGI is above 100 µM with DU-145 prostate; above 100000 nM in the test with HT29 colon; above 100 µM in the test on MCF7 breast; above 100 µM in the test on NCI-H460 lung; above 100 µM with RXF 393 renal; above 100 µM with SF-539 CNS. Moreover, the TGI in the test with U251 CNS and with UACC-257 melanoma was above 100 µM in each case.

On to `c1ccc2c(NCCCCCCNc3c4ccccc4nc4ccccc34)c3ccccc3nc2c1`, for which the TGI in the test with DU-145 prostate is 2.76 µM; in the test on HT29 colon, 1770 nM; in the test on MCF7 breast it was 2.07 µM; in the test with RXF 393 renal, 1.56 µM; in the test with SF-539 CNS, 0.835 µM; in the test with SK-OV-3 ovarian, 4.31 µM. The TGI was 4.25 µM in the test on SN12C renal, 2.59 µM in the test with U251 CNS and 8.28 µM in the test on UACC-257 melanoma.

As to `NC1CCC(Nc2nc(NCc3ccc(-c4ccccc4O)nc3)c3ncn(C4CCCC4)c3n2)CC1` (centres undefined), the GI50 in the test with DU-145 prostate was 0.0344 µM; with HT29 colon, below 10 nM; in the test on NCI-H460 lung, 0.0337 µM; in the test with RXF 393 renal, 0.0144 µM; with SF-539 CNS, 0.0625 µM; in the test with SK-OV-3 ovarian, 0.036 µM. The results for the GI50 with SN12C renal, with U251 CNS and with UACC-257 melanoma were 0.0149 µM, 0.0294 µM and 0.0227 µM, respectively. The TGI in the test on DU-145 prostate came to 1.16 µM; with HT29 colon, 210 nM; in the test on NCI-H460 lung it was 1.17 µM; in the test with RXF 393 renal it was 0.0356 µM; in the test on SF-539 CNS it was 0.267 µM; in the test on SK-OV-3 ovarian it was 0.431 µM. The TGI in the test on SN12C renal came out at 1.38 µM; in the test on U251 CNS, 0.321 µM; with UACC-257 melanoma, 0.0729 µM.

Take `Cc1ccc(NC2=C(Cl)C(=O)N(Cc3ccc(Cl)cc3)C2=O)cc1O`: the GI50 with DU-145 prostate is 14.9 µM; with MCF7 breast, 6.73 µM; with NCI-H460 lung, 4.29 µM; in the test on RXF 393 renal it was 10.4 µM; with SF-539 CNS it was 3.1 µM; with SK-OV-3 ovarian, 10.9 µM. The GI50 with SN12C renal was 13.3 µM; in the test on U251 CNS it was 4.88 µM; with UACC-257 melanoma, 13 µM. Further, the TGI came out at 40.6 µM in the test on DU-145 prostate; 27.5 µM in the test on MCF7 breast; 20.5 µM in the test with NCI-H460 lung; 36.4 µM with RXF 393 renal; 16.2 µM in the test on SF-539 CNS; 32.3 µM in the test with SK-OV-3 ovarian. Also, the results for the TGI in the test with SN12C renal, with U251 CNS and in the test with UACC-257 melanoma were 30.5 µM, above 100 µM and 28.7 µM, respectively.

For `COc1cc(Nc2nc3ccccc3nc2NS(=O)(=O)c2ccc(NC(=O)c3ccc(C)c(OC)c3)cc2)cc(OC)c1`, the TGI is above 100 µM in the test on DU-145 prostate; above 100000 nM in the test on HT29 colon; above 100 µM in the test with MCF7 breast; above 100 µM with NCI-H460 lung; 14.8 µM and 33.4 µM and > 6.13 µM with RXF 393 renal; > 100 µM and 73.7 µM and > 6.59 µM in the test on SF-539 CNS. Also, the TGI was above 100 µM in the test on SN12C renal; 34.7 µM and 33.5 µM and > 10 µM in the test with U251 CNS. For the same compound, the GI50 is 2.8 µM and 7.57 µM and 1.06 µM in the test with RXF 393 renal; 3.71 µM and 12 µM and 2.27 µM with U251 CNS.

These data come from PubChem BioAssay (NCI).
